Data published in US6825230B2, “Spiro and dispiro 1,2,4-trixolane antimalarials” (Medicines for Malaria Venture MMV, priority 2002, dated 2004).
In brackets after ≈: the same amount, converted by molar mass. Read-outs that look alike come from different tables or passages of the source.

Assays:
[1] = system: chloroquine-resistant K1 strain of P. falciparum; assay: In vitro antimalarial semiautomated microdilution assay ([3H]-hypoxanthine incorporation), K1 strain; assay type: cell-based, Plasmodium falciparum; conditions: Plasmodium falciparum
In short: (§1)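 IC50 values come from Logit regression of [3H]-hypoxanthine uptake data. Parasites were intraerythrocytic P. falciparum forms taken from asynchronous stock cultures and tested by semiautomated microdilution.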

[2] = system: chloroquine-sensitive NF54 strain of P. falciparum; assay: In vitro antimalarial semiautomated microdilution assay ([3H]-hypoxanthine incorporation), NF54 strain; assay type: cell-based, Plasmodium falciparum; conditions: Plasmodium falciparum
In short: as §1

[3] = system: ANKA strain of P. berghei; assay: Single dose STI in vivo screen in infected mice; design: species or system Plasmodium berghei; conditions: for Survival (days) 3 mg/kg SSV po / Activity (%) 3 mg/kg SSV po: single 3 mg/kg po in SSV; for Activity (%) 3 mg/kg SSV po / Activity (%) 10 mg/kg SSV po / Activity (%) 10 mg/kg po / Activity (%) 10 mg/kg sc: percent reduction in parasitemia on day 3; for Survival (days) 10 mg/kg SSV po: single 10 mg/kg po in SSV; for Survival (days) 10 mg/kg SSV po / Survival (days) 10 mg/kg po / Survival (days) 10 mg/kg sc: untreated 6-7 days; for Activity (%) 10 mg/kg SSV po: single 10 mg/kg po in standard suspending vehicle (SSV) on day 1 post-infection; for Survival (days) 10 mg/kg po: single 10 mg/kg po in 3% ethanol and 7% Tween 80; for Activity (%) 10 mg/kg po: single 10 mg/kg po in 3% ethanol and 7% Tween 80 on day 1 post-infection; for Survival (days) 10 mg/kg sc: single 10 mg/kg sc in 3% ethanol and 7% Tween 80; for Activity (%) 10 mg/kg sc: single 10 mg/kg sc in 3% ethanol and 7% Tween 80 on day 1 post-infection
[4] = chloroquine-resistant K1 strain, 72 h incubation, read-out: IC50 (ng/ml) K1
[5] = chloroquine-sensitive NF54 strain, 72 h incubation, read-out: IC50 (ng/ml) NF54
[6] = K1, 72 h, read-out: IC50 (ng/ml) K1, chloroquine-resistant K1 strain, 72 h incubation
[7] = NF54, 72 h, read-out: IC50 (ng/ml) NF54, chloroquine-sensitive NF54 strain, 72 h incubation

Structure (SMILES)	IC50 [1, 4] [ng/mL]	IC50 [2, 5] [ng/mL]	Survival (days) 3 mg/kg SSV po [3] [days]	Activity (%) 3 mg/kg SSV po [3] [%]	Survival (days) 10 mg/kg SSV po [3]	Activity (%) 10 mg/kg SSV po [3]	Survival (days) 10 mg/kg po [3]	Activity (%) 10 mg/kg po [3]	Survival (days) 10 mg/kg sc [3]	Activity (%) 10 mg/kg sc [3]	IC50 [1, 6] [ng/mL]	IC50 [2, 7] [ng/mL]
O=C1CN(C[C@H]2CC[C@]3(CC2)OOC2(O3)C3CC4CC(C3)CC2C4)CCN1 (stereo partly shown) [OZ285]	1.3 (≈ 0.00345 µM)	1.8 (≈ 0.00478 µM)	7.6	72	8.7 days	99.81%	–	–	–	–	–	–
COC(=O)c1cn(C[C@H]2CC[C@]3(CC2)OOC2(O3)C3CC4CC(C3)CC2C4)cn1 (stereo partly shown) [OZ224]	2 (≈ 0.00497 µM)	3 (≈ 0.00745 µM)	–	–	5.7 days	5%	6.0 days	0%	5.7 days	20%	–	–
NCCOc1ccc([C@H]2CC[C@]3(CC2)OO[C@]2(O3)C3CC4CC(C3)CC2C4)cc1 [OZ323]	–	–	9.2	99.92	15.6 days	99.98%	–	–	–	–	0.85 (≈ 0.00213 µM)	1.1 (≈ 0.00275 µM)
O=C(OCCn1ccnc1)C1CCC2(CC1)OOC1(O2)C2CC3CC(C2)CC1C3 (stereo not shown) [OZ182]	–	–	–	–	7.3 days	96%	8.0 days	91%	7.7 days	95%	4.5 (≈ 0.0112 µM)	5.5 (≈ 0.0137 µM)
O=C1c2ccccc2C(=O)N1[C@H]1CC[C@]2(CC1)OOC1(O2)C2CC3CC(C2)CC1C3 (stereo partly shown) [OZ136]	–	–	–	–	6.0/6.0/6.0 days	0/0/0%	6.0/6.0/6.0 days	0/0/0%	6.0/6.0/6.0 days	0/0/0%	23 (≈ 0.0562 µM)	21 (≈ 0.0513 µM)
COC(=O)C1(c2ccccc2)CCC2(CC1)OOC1(O2)C2CC3CC(C2)CC1C3 (stereo not shown) [OZ98]	–	–	–	–	5.3 days	11%	6.3 days	72%	7.3 days	77%	2.3 (≈ 0.00577 µM)	0.9 (≈ 0.00226 µM)
COCC(=O)N(C1CCCCC1)C1CCC2(CC1)OOC1(O2)C2CC3CC(C2)CC1C3 (stereo not shown) [OZ174]	–	–	–	–	7.3 days	15%	6.7 days	0%	10.3 days	90%	27 (≈ 0.0623 µM)	34 (≈ 0.0784 µM)
O=C1CN(C(=O)C[C@H]2CC[C@]3(CC2)OO[C@]2(O3)C3CC4CC(C3)CC2C4)CCN1 [OZ296]	0.6 (≈ 0.00148 µM)	0.89 (≈ 0.0022 µM)	9.2	90	10.0 days	99.22%	–	–	–	–	–	–
N=C(N)NC[C@H]1CC[C@]2(CC1)OOC1(O2)C2CC3CC(C2)CC1C3 (stereo partly shown) [OZ237]	–	–	–	–	6.0 days	9%	6.0 days	5%	6.7 days	52%	5.7 (≈ 0.017 µM)	7.1 (≈ 0.0212 µM)
O=C(O)c1ccc(C2(c3ccc(C(=O)O)cc3)OOC3(O2)C2CC4CC(C2)CC3C4)cc1 (stereo not shown) [OZ135, Adamantane-2-spiro-3′-5′,5′-bis(4′-carboxyphenyl)-1′,2′,4′-trioxolane]	–	–	–	–	5.3/5.3/5.3 days	0%	5.3/5.3/5.3 days	1%	5.3/5.3/5.3 days	0%	> 100	> 100
O=[N+]([O-])c1cc(C2(c3ccc(Cl)c([N+](=O)[O-])c3)OOC3(O2)C2CC4CC(C2)CC3C4)ccc1Cl (stereo not shown) [OZ96, Adamantane-2-spiro-3′-5′,5′-bis(4′-chloro-3′-nitrophenyl)-1′,2′,4′-trioxolane]	–	–	–	–	5.7 days	14%	5.7 days	12%	5.3 days	19%	8.4 (≈ 0.0166 µM)	> 10
O=C(O)C1CCN(C(=O)C[C@H]2CC[C@]3(CC2)OO[C@]2(O3)C3CC4CC(C3)CC2C4)CC1 [OZ312]	–	–	6.2	13	7.2 days	43%	–	–	–	–	19 (≈ 0.0438 µM)	27 (≈ 0.0623 µM)
O=C(O)c1cn(C[C@H]2CC[C@]3(CC2)OOC2(O3)C3CC4CC(C3)CC2C4)cn1 (stereo partly shown) [OZ225]	7.3 (≈ 0.0188 µM)	> 10	–	–	5.7 days	0%	5.7 days	0%	6.3 days	17%	–	–
O=S(=O)(c1cccc2cccnc12)N1CCC2(CC1)OOC1(O2)C2CC3CC(C2)CC1C3 (stereo not shown) [OZ114, Adamantane-2-spiro-3′-8′-(8′-quinolinesulfonyl)-1′,2′,4′-trioxa-8′-azaspiro[4.5]decane]	–	–	–	–	6.0 days	0%	5.7 days	0%	8.7 days	99.64%	3.7 (≈ 0.0081 µM)	2.2 (≈ 0.00482 µM)
c1ccc2c(c1)-c1ccccc1C21OOC2(O1)C1CC3CC(C1)CC2C3 (stereo not shown) [OZ94, Adamantane-2-spiro-3′-1′,2′,4′-trioxolane-5′-spiro-9″-fluorene]	–	–	–	–	5.7 days	0%	6.0 days	21%	5.3 days	11%	57 (≈ 0.165 µM)	28 (≈ 0.0808 µM)
Clc1ccc2c(NCCNC3CCC4(CC3)OOC3(O4)C4CC5CC(C4)CC3C5)ccnc2c1 (stereo not shown) [OZ258]	5.8 (≈ 0.012 µM)	5.2 (≈ 0.0107 µM)	–	–	6.0 days	70%	6.0 days	75%	10.7 days	99.95%	–	–
O=S(=O)(Cc1ccccc1)N1CCC2(CC1)OOC1(O2)C2CC3CC(C2)CC1C3 (stereo not shown) [OZ131, Adamantane-2-spiro-3′-8′-phenylmethanesulfonyl-1′,2′,4′-trioxa-8′-azaspiro[4.5]decane]	–	–	–	–	6.0 days	41%	5.7 days	21%	8.0 days	90%	1.7 (≈ 0.00405 µM)	4.1 (≈ 0.00977 µM)
C=C1COC2(CCC3(CC2)OOC2(O3)C3CC4CC(C3)CC2C4)OC1 (stereo not shown) [OZ128, Adamantane-2-spiro-3′-11′-methylene-1′,2′,4′,9′,13′-pentaoxadispiro[4.2.5.2]pentadecane]	–	–	–	–	8.7 days	99.95%	8.3 days	99.93%	11.7 days	99.98%	0.59 (≈ 0.00169 µM)	1.1 (≈ 0.00316 µM)
